# From patent publication US5541290A, “Optically pure calpain inhibitor compounds” (priority 1993, dated 1996)
# Counter-ions that a name gives are not always drawn.
# Target: T1, Calpain I (porcine erythrocytes) (Sus scrofa, UniProt P35750)
# T1 construct: Calpain I (porcine erythrocytes, Nacalai Tesque, Kyoto, Japan); purchased Nacalai Tesque, Kyoto, Japan; host or cells: porcine erythrocytes (natural tissue source)
# T1 sequence (P35750 1-714): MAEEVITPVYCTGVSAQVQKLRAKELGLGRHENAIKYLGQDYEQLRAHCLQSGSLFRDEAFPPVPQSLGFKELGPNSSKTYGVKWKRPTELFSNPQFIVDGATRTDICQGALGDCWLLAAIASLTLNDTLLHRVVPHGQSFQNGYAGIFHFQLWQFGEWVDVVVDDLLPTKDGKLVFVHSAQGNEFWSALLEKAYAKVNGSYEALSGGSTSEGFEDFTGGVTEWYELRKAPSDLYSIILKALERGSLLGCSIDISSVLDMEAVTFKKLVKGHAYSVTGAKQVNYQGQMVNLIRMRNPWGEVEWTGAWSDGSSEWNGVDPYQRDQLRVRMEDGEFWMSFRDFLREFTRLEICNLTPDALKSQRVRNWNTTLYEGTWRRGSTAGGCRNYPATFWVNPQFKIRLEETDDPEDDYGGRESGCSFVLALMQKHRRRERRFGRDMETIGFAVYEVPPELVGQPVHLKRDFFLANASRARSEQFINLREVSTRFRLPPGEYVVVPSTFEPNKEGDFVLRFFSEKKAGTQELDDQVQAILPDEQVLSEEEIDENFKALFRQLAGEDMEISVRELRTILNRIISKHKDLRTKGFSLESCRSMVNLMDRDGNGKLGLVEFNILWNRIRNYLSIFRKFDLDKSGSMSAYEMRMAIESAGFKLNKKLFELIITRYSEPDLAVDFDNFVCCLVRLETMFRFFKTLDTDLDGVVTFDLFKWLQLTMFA
# T1 sequence (P04574 1-266 partner): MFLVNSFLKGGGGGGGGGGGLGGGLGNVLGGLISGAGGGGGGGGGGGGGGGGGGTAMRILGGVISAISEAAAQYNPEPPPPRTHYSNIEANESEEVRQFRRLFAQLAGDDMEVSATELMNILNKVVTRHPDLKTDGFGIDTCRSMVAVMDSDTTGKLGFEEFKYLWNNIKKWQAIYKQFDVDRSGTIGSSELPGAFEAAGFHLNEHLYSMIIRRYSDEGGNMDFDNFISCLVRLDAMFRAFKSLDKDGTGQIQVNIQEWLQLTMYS
# Assay: Calpain assay, continuous spectrofluorometric assay with SLY-MCA
# Assay type: biochemical
# Conditions: not given
row,Molecule,IC50 [µM]
1,CCNC(=O)C(=O)C(Cc1ccccc1)NC(=O)C(CC(C)C)NC(=O)OCc1ccccc1 [Cbz-L-Leu-D-Phe-CONH-Et],> 1.5

# Target: T1, Calpain I (porcine erythrocytes)
# Assay: as above
# Assay type: biochemical
# Conditions: SLY-MCA substrate, 25° C., pH 7.5, competitive inhibition fit, read-out: Ki, pCal I
# Description: Calpain activity was monitored using a continuous spectrofluorometric assay with succinyl-Leucyl-Tyrosyl-4-methylcoumaryl-γ-amide (SLY-MCA); Sasaki, T.; Kikuchi, T.; Yumotogo, N.; Yoshimura, N. and Murachi, T. J. Biol. Chem. 1984, 259. 12489-12494) at 25° C. using a Hitachi F4500 fluorescence spectrophotometer with a temperature controlled cuvette holder. The substrate solution was composed of SLY-MCA (2-0.2 mM) in 50 mM MOPS, pH 7.5, 5 mM CaCl2, 5 mM β-mercaptoethanol and 1% DMSO. Solutions of the inhibitors (100-500 nM) were prepared in the same buffer mixture as substrate. Calpain I (porcine erythrocytes, Nacalai Tesque, Kyoto, Japan) was diluted to 180 ug/mL in 20 mM HEPES, pH 7.5, 2 mM EDTA, 2 mM EGTA and 5 mM DTT. The substrate solution (0.9 mL) was placed in a 1 cm cuvette and to this was added either the inhibitor solution (0.05 mL) or the buffer (0.05 mL) as a control. The reaction was initiated by addition of the calpain I solution (0.05 mL) and the increase in fluorescence (excitation at 380 nm; emission at 460 nm) was monitored for 3 to 10 min. The initial velocities were then used to obtain the values of Vmax, Km and Ki by an iterative least squares fit of the data to the following equation for competitive inhibition according to the method of W. W. Cleland, Biochim. Biophys. Acta 67: 173 (1963).
# V={Vmax ·[SLY-MCA]}/{(1+Inh]/Kl)·Km+[SLY-MCA]}
row,Molecule,Ki [µM]
1,CCNC(=O)C(=O)C(CC)NC(=O)C(CC(C)C)NC(=O)OC(C)(C)C [Boc-L-Leu-L-Abu-CONH-Et],0.17 ± 0.015
2,"CCC(NC(=O)C(CC(C)C)NC(=O)OCc1ccccc1)C(=O)C(=O)NCCS(=O)(=O)CC [Cbz-L-Leu-L-Abu-C(O)-NH-(CH2)2 -SO2 -ET, Cbz-L-Leu-L-Abu-C(O)--NH--(CH2)2 --SO2 --Et]",0.129 ± 0.015
3,CC(C)C[C@H](NC(=O)OCc1ccccc1)C(=O)N[C@@H](Cc1ccccc1)C(=O)C(=O)N[C@@H](C)C(=O)O [Cbz-L-Leu-L-Phe-C(O)-L-Ala-OH],0.718 ± 0.084
4,COC(=O)C(C)NC(=O)C(=O)C(Cc1ccccc1)NC(=O)C(CC(C)C)NC(=O)OCc1ccccc1 [Cbz-L-Leu-L-Phe-C(O)-L-Ala-OMe],0.092 ± 0.006
5,Boc-D-Phe-L-Leu-L-Norvaline-CONH-Et,0.093 ± 0.004
6,Boc-L-Phe-L-Leu-L-Norvaline-CONH-Et,0.061 ± 0.002
7,Cbz-L-Leu-L-Abu-CONH-Et,0.077 ± 0.01
8,Cbz-L-Leu-L-Norvaline-CONH-Et,0.078

# Second part, the molecule after the results:
row,Ki [µM],Molecule
1,0.141 ± 0.022,CCC(NC(=O)C(=O)C(Cc1ccccc1)NC(=O)C(CC(C)C)NC(=O)OCc1ccccc1)C(=O)OC [Cbz-L-Leu-L-Phe-C(O)-L-α-Abu-OMe]
2,0.273 ± 0.017,COC(=O)[C@H](Cc1ccc(OC(C)(C)C)cc1)NC(=O)C(=O)C(Cc1ccccc1)NC(=O)[C@H](CC(C)C)NC(=O)OCc1ccccc1 (stereo partly drawn) [Cbz-L-Leu-L-Phe-C(O)-Tyr(O-t-butyl)-OMe]
3,0.244 ± 0.011,"CCCC(NC(=O)C(CC(C)C)NC(=O)C(N)Cc1ccccc1)C(=O)C(=O)NCC [D-Phe-L-Leu-L-Norvaline-CONH-Et.HCl, D-Phe-L-Leu-L-Norvaline-CONH-Et·HCl]"
4,0.332 ± 0.029,CCNC(=O)C(=O)C(CC)NC(=O)C(CC(C)C)NC(=O)N(C)C [Dimethylurea-L-Leu-L-Abu-CONH-Et]
5,0.116 ± 0.005,"CCCC(NC(=O)C(CC(C)C)NC(=O)C(N)Cc1ccccc1)C(=O)C(=O)NCC [L-Phe-L-Leu-L-Norvaline-CONH-Et.HCl, L-Phe-L-Leu-L-Norvaline-CONH-Et·HCl]"
6,0.199 ± 0.016,CCNC(=O)C(=O)C(CC)NC(=O)C(CC(C)C)NC(=O)N1CCOCC1 [Morpholinourea-L-Leu-L-Abu-CONH-Et]
7,0.0766 ± 0.0052,Cbz-L-Leu-L-Phe-C(O)-L-Norleucine-OMe
8,0.031 ± 0.012,Cbz-L-Leu-L-Phe-C(O)-Phe-OMe
9,0.089,Cbz-L-Leu-L-Phenylalanine-CONH-Et
